Experiment [1] has as its system mouse lung carcinoma cell line (3LL cells). Description: Cell invasion inhibition assay (Matrigel invasion chamber). The settings on record: in words. It is filed as cell-based. Here is the method:
In this Pharmacological Test, the inhibitory effect of each test compound on cell invasion response was evaluated using a mouse lung carcinoma cell line (3LL cells), a mouse pancreatic cancer cell line (PANC02 cells), and a human breast cancer cell line (MDA-MB-157 cells). Of these, the mouse lung carcinoma cell line (3LL) is a cancer cell line with mutant Ras (K-Ras (G12C)), and the human breast cancer cell line (MDA-MB-157) is a cancer cell line with mutant Rac (Rac1 (P29S)). The experiments were performed in BD BioCoat Matrigel invasion chambers (BD Biosciences).
Specifically, an upper chamber with a Matrigel-coated membrane insert (8 μm pores) at the bottom was equilibrated with DMEM (serum-free medium) for 120 minutes. Thereafter, 300 μL of a suspension of a cancer cell line in DMEM (serum-free) was placed in the upper chamber while 500 μL of DMEM (with 10 mass % FCS) was placed in the lower chamber. Each test compound dissolved in DMSO at a predetermined concentration was added to both the culture media in the upper and lower chambers. As a control, DMSO alone was added to both the culture media in the upper and lower chambers. In all of the experiments, the final DMSO concentration in the culture media was adjusted to 0.2 mass %.
The resulting products were cultured under 5% CO2 at 37° C. for 22 hours (3LL and PANC02 cells) or 48 hours (MDA-MB-157 cells). Then, the upper chamber was removed, and the culture medium was removed. Thereafter, non-invading cells remaining in the upper chamber were removed using a cotton swab, and the cells remaining outside the bottom of the upper chamber (cells that had invaded into the Matrigel, and passed through the membrane insert) were stained with Diff-Quick (Sysmex). After staining, the membrane inserts with Matrigel were cut out using a scalpel to prepare slides, and the number of invading cells was counted under an optical microscope.
The results were evaluated based on percent cell invasion (%: Invasion) and percent inhibition (%: Inhibition). The percent cell invasion was obtained by converting the number of invading cells in the presence of each test compound into a percentage, taking the number of invading cells in the control test, in which DMSO was added alone, as 100%; and the percent inhibition was obtained by deducting the percent cell invasion from 100.

A further experiment deals with T1, DOCK1 (DHR-2 domain) (Homo sapiens, UniProt Q14185).
T1 construct: polypeptide fragments corresponding to the DHR-2 domain of DOCK1 or DOCK2 from mice and humans; Histidine-SUMO (N); made in house; host or cells: E. coli Arctic express (DE3)
T1 sequence (Q14185 1207-1617 limits assumed): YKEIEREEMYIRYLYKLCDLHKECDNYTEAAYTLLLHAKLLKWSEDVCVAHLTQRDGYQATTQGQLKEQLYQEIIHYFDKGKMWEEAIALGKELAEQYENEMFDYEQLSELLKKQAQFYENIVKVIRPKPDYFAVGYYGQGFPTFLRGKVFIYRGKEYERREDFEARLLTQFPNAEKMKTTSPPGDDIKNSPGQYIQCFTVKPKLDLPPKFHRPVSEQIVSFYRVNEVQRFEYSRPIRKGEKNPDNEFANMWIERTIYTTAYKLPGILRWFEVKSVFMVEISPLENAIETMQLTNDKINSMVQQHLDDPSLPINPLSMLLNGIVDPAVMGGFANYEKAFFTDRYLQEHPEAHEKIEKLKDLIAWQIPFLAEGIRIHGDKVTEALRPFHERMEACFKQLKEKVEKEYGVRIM
Kind of experiment: In vitro GEF assay: Rac activation by DOCK1 DHR-2 domain. It is filed as biochemical, mice and humans. The settings on record: in words; for selective inhibitory activity against DOCK1 versus DOCK2: GEF assay DOCK1 vs DOCK2 DHR-2 domain. How it is done: DOCK1 and DOCK2, i.e., DOCK-A subfamily members, both activate Rac by catalyzing the GTP-GDP exchange reaction for Rac via their DHR-2 domains. Therefore, in this Pharmacological Test, the inhibitory effect of the compounds of the present invention on Rac activation by DOCK1 or DOCK2 was assessed in an in vitro GEF assay by using polypeptide fragments corresponding to the DHR-2 domain of DOCK1 or DOCK2 from mice and humans. The in vitro GEF assay was performed using a labeled GTP (Bodipy-FL-GTP, Invitrogen), which has a property of increasing the fluorescence intensity when bound to Rac.
The polypeptide fragments corresponding to the DHR-2 domain of DOCK1 or DOCK2 were prepared by expression in E. coli Arctic express (DE3) cells as N-terminal. Histidine-SUMO tag-fused recombinant proteins, followed by purification by affinity column chromatography on nickel-NTA columns.
Rac was prepared by expression in E. coli BL21 (DE3) cells as an N-terminal GST tag-fused recombinant protein, followed by purification by affinity column chromatography on glutathione-Sepharose columns.
Each of the polypeptide fragments corresponding to the DHR-2 domain of DOCK1 or DOCK2, and a predetermined concentration of each test compound (the compounds of the present invention: 33 types of compounds; and comparative compound: TBOPP) dissolved in DMSO were incubated in a reaction solution A (pH 7.0), which contained 20 mM of MES-NaOH, 150 mM of NaCl, 10 mM of MgCl2, and 20 μM of GDP for 20 minutes at room temperature while being shielded from light to thus prepare GEF pretreated products. The final concentration of DMSO was adjusted to 1 mass % in all of the test samples. For a control test, a GEF pretreated product (control) was prepared by incubation in the same manner using DMSO with no test compounds, instead of the DMSO used above in which each test compound was dissolved.
Separately, Rac was added to the reaction solution A (pH 7.0) to a concentration of 15 μM, and was allowed to stand on for 30 min to form a GDP-Rac complex. Bodipy-FL-GTP was added to a concentration of 3.6 μM to 100 μL of the reaction solution A that contained the thus-prepared GDP-Rac complex, and equilibrated at 30° C. for 2 minutes. After equilibration, 50 μL of the GEF pretreated product prepared as described above was added and reacted at 30° C.
Changes in fluorescence intensity of Bodipy-FL-GTP in the reaction solutions were monitored using an EnSpire spectrofluorometer (Perkin Elmer) (excitation wavelength: 488 nm, fluorescence wavelength: 514 nm). The measured values were corrected so that the fluorescence intensity at the beginning of the reaction (0 sec) was 0. Then, an approximate curve (hyperbola) was obtained by plotting the calculated correction values on the y-axis and the time (t) on the x-axis using GraphPad Prism5 (GraphPad software), and the slope at t=0 to 10 seconds was defined as the initial velocity of the guanine nucleotide exchange reaction. The IC50 value was calculated taking the initial reaction velocity of the control, to which only a solvent (DMSO) was added, as 100%.
Based on the obtained results, columns A and B of FIG. 1, FIG. 2, FIG. 3-1, and FIG. 3-2 show the results evaluating the inhibitory effect on Rac activation by DOCK1 (DHR-2 domain) (IC50 value), and DOCK1-selective inhibitory effect (DOCK1/DOCK2 selectivity) of each test compound. The inhibitory effect on Rac activation by DOCK1 (DHR-2 domain) (IC50 value) was determined from the reaction inhibition curve plotted using values of Rac activation by the DOCK1 DHR-2 domain in the presence of various concentrations of the test compounds, taking the values of the control as 100%. […]

As to `O=C(Cn1cc(S(=O)(=O)N2CCCC2)ccc1=O)c1ccc(-c2cccc(C(F)(F)F)n2)cc1` [KS-22, 1-(2-oxo-2-(4-(6-(trifluoromethyl)pyridin-2-yl)phenyl)ethyl)-5-(pyrrolidin-1-yl-sulfonyl)pyridin-2(1H)-one], the “percent cell invasion inhibition compared with TBOPP” value (“percent cell invasion inhibition” for short) in experiment [1] was “higher percent cell invasion inhibition than TBOPP”.
Take `Cc1cc(-c2ccc(C(=O)Cn3cc(S(=O)(=O)N4CCCC4)ccc3=O)cc2)ccc1N(C)C` [KS-16, 1-(2-(4′-(dimethylamino)-3′-methyl-[1,1′-biphenyl]-4-yl)-2-oxoethyl)-5-(pyrrolidin-1-yl-sulfonyl)pyridin-2(1H)-one]: in experiment [1], the “percent cell invasion inhibition” value is on record as “higher percent cell invasion inhibition than TBOPP”.
For `CCC(=O)c1cc(S(=O)(=O)N2CCCC2)cn1CC(=O)c1ccc(-c2cccc(C(F)(F)F)c2)cc1` [HS-17, 1-(1-(2-oxo-2-(3′-(trifluoromethyl)-[1,1′-biphenyl]-4-yl)ethyl)-4-(pyrrolidin-1-yl-sulfonyl)-1H-pyrrol-2-yl)propan-1-one], in experiment [1], the “percent cell invasion inhibition” value is on record as “higher percent cell invasion inhibition than TBOPP”.
Same read-out and setting: the entry for `O=C(Cn1cc(S(=O)(=O)N2CCCC2)ccc1=O)c1ccc(-c2cccc(SC(F)(F)F)c2)cc1` [KS-21, 1-(2-oxo-2-(3′-((trifluoromethyl)thio)-[1,1′-biphenyl]-4-yl)ethyl)-5-(pyrrolidin-1-yl-sulfonyl)pyridin-2(1H)-one] is “higher percent cell invasion inhibition than TBOPP”.
For `O=C(Cn1cc(S(=O)(=O)N2CCCC2)cc1-c1ncco1)c1ccc(-c2cccc(C(F)(F)F)c2)cc1` [RT-58, 2-(2-(oxazol-2-yl)-4-(pyrrolidin-1-yl-sulfonyl)-1H-pyrrol-1-yl)-1-(3′-(trifluoromethyl)-[1,1′-biphenyl]-4-yl)ethan-1-one], the “selective inhibitory activity against DOCK1 versus DOCK2” value at DOCK1 (DHR-2 domain) is recorded as “higher selective inhibitory activity against DOCK1 than against DOCK2”. The “percent cell invasion inhibition” value in experiment [1] was “higher percent cell invasion inhibition than TBOPP”.
Turning to `O=C(Cn1cc(S(=O)(=O)N2CCCC2)ccc1=O)c1ccc(-c2ccc3ncccc3c2)cc1` [KS-23, 1-(2-oxo-2-(4-(quinolin-6-yl)phenyl)ethyl)-5-(pyrrolidin-1-yl-sulfonyl)pyridin-2(1H)-one], the “percent cell invasion inhibition” value in experiment [1] is reported as “higher percent cell invasion inhibition than TBOPP”.
For the molecule `COC(=O)c1cc(S(=O)(=O)N2CCCC2)cn1CC(O)c1ccc(-c2cccc(C(F)(F)F)c2)cc1` (stereo not shown) [HS-6, methyl 1-(2-hydroxy-2-(3′-(trifluoromethyl)-[1,1′-biphenyl]-4-yl)ethyl)-4-(pyrrolidin-1-yl-sulfonyl)-1H-pyrrole-2-carboxylate], the “selective inhibitory activity against DOCK1 versus DOCK2” value on DOCK1 (DHR-2 domain) is “higher selective inhibitory activity against DOCK1 than against DOCK2”. For the same molecule, the “percent cell invasion inhibition” value in experiment [1] was “higher percent cell invasion inhibition than TBOPP”.
Consider `Nc1cc(S(=O)(=O)N2CCCC2)cn(CC(=O)c2ccc(-c3cccc(C(F)(F)F)c3)cc2)c1=O` [RT-13, 3-amino-1-(2-oxo-2-(3′-(trifluoromethyl)-[1,1′-biphenyl]-4-yl)ethyl)-5-(pyrrolidin-1-yl-sulfonyl)pyridin-2(1H)-one], for which, in experiment [1], the “percent cell invasion inhibition” value is recorded as “higher percent cell invasion inhibition than TBOPP”.
`O=C(Cn1cc(S(=O)(=O)N2CCC(c3ccc(-c4cc(F)c(F)c(F)c4)cc3)CC2)ccc1=O)c1ccc(-c2cc(F)c(F)c(F)c2)cc1` [KS-59, 1-(2-oxo-2-(3′,4′,5′-trifluoro-[1,1′-biphenyl]-4-yl)ethyl)-5-((4-(3′,4′,5′-trifluoro-[1,1′-biphenyl]-4-yl)piperidin-1-yl)sulfonyl)pyridin-2(1H)-one]: on DOCK1 (DHR-2 domain) (GEF assay), the “DOCK1-inhibiting activity compared with TBOPP” value is reported as “higher than those of TBOPP” and the “selective inhibitory activity against DOCK1 compared to TBOPP” value is given as “higher than those of TBOPP”. On DOCK1 (DHR-2 domain), the “selective inhibitory activity against DOCK1 versus DOCK2” value was “higher selective inhibitory activity against DOCK1 than against DOCK2”. In addition, the “percent cell invasion inhibition” value in experiment [1] is listed as “higher than those of TBOPP”.
Turning to `CC(=O)c1cc(S(=O)(=O)N2CCCC2)cn1CC(=O)c1ccc(-c2cccc(C(F)(F)F)c2)cc1` [HS-16, 2-(2-acetyl-4-(pyrrolidin-1-yl-sulfonyl)-1H-pyrrol-1-yl)-1-(3′-(trifluoromethyl)-[1,1′-biphenyl]-4-yl)ethane-1-one], on DOCK1 (DHR-2 domain), the “selective inhibitory activity against DOCK1 versus DOCK2” value is listed as “higher selective inhibitory activity against DOCK1 than against DOCK2”. Besides, the “percent cell invasion inhibition” value in experiment [1] is “higher percent cell invasion inhibition than TBOPP”.

The record behind these values is patent US20220017486A1, “DOCK1-INHIBITING COMPOUND AND USE THEREOF” (KYUSHU UNIVERSITY, NATIONAL UNIVERSITY CORPORATION, priority 2018, published 2022).
